One block for each molecule: values may come before it.
Assays:
[1] = Dose (iv) for 20% reduction of mean blood pressure in rat (ID20) with the dose for 50% inhibition of norepinephrine-mediated contraction of proximal urethra (ID50) in cat; type: functional
[2] = Inhibitory concentration on human 5-alpha reductase isozyme
[3] = molecular target: T1, Steroid 5-alpha-reductase (Rattus norvegicus, UniProt P24008+P31214); experiment: Inhibition of rat 5-alpha reductase isozyme.; type: protein assay
T1 sequence (P24008 whole entry): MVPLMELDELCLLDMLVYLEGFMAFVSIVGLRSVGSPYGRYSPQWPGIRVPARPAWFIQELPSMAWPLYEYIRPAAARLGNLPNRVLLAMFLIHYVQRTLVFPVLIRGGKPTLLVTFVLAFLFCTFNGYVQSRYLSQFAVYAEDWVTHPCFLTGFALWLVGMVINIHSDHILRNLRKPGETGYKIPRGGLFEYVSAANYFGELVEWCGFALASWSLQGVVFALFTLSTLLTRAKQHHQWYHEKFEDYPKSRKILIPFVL
T1 sequence (P31214 whole entry): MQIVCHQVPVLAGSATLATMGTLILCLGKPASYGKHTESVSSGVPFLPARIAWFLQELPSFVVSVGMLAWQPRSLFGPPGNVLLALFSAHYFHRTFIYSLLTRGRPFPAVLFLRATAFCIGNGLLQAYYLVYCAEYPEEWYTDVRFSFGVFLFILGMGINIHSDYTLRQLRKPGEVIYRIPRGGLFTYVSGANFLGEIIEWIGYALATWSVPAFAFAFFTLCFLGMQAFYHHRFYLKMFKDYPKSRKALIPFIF

Canis familiaris [4] = experiment: 50% reduction in intraurethral pressure (IUP) in response to hypogastric nerve stimulation or agonist (phenylephrine or norepinephrine) administration in anesthetized dog; type: functional; settings: Canis lupus familiaris; read-out: ID50 (the source's name)
Canis familiaris [5] = experiment: 50% reduction in agonist induced pressor response in anesthetized dog; type: functional; settings: Canis lupus familiaris; read-out: ID50 (the source's name)
[6] = molecular target: T2, 3-oxo-5-alpha-steroid 4-dehydrogenase 2 (Homo sapiens, UniProt P31213); experiment: Inhibitory concentration on human prostatic 5-alpha reductase 2 isozyme
T2 sequence (P31213 whole entry): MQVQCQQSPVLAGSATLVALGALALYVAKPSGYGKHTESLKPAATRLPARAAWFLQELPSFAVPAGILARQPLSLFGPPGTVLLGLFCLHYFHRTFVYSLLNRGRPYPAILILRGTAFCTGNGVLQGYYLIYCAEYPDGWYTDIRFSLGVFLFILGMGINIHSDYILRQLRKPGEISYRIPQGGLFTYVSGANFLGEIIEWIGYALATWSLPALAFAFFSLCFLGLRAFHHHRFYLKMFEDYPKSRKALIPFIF

[7] = molecular target: T3, Alpha-1D adrenergic receptor (Homo sapiens, UniProt P25100); experiment: Binding affinity was tested on human Alpha-1D adrenergic receptor
T3 sequence (P25100 whole entry): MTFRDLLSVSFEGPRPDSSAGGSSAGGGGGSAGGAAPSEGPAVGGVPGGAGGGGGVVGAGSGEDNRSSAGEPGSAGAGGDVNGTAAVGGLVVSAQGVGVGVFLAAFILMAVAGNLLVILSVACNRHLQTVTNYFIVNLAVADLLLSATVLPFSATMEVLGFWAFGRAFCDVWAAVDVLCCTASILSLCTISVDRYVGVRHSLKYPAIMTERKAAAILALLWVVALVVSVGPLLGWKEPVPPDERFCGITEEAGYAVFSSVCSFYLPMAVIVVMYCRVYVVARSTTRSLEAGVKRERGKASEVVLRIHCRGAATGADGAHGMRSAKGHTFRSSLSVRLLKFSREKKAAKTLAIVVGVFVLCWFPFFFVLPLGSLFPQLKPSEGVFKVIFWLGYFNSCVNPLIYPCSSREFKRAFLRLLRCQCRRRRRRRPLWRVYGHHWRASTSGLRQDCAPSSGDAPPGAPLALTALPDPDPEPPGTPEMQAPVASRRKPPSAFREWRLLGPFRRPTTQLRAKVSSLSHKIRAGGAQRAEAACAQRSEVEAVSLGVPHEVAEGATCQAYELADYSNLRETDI

[8] = molecular target: T4, Alpha-1B adrenergic receptor (Homo sapiens, UniProt P35368); experiment: Binding affinity was tested on human Alpha-1B adrenergic receptor
T4 sequence (P35368 whole entry): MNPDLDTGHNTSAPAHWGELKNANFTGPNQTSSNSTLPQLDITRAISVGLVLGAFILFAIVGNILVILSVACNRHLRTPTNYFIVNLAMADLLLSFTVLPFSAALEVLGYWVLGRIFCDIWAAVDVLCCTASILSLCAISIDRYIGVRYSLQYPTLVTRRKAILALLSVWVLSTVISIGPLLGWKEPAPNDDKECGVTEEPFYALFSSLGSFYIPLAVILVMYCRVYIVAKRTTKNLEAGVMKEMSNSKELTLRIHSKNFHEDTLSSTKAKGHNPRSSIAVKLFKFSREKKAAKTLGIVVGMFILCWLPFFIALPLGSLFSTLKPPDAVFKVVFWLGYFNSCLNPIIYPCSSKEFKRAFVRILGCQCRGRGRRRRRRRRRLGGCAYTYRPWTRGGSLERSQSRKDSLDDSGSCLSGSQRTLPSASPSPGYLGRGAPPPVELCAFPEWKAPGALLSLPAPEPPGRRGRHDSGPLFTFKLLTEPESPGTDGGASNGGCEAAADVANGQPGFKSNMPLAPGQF

[9] = molecular target: T5, Alpha-1A adrenergic receptor (Rattus norvegicus, UniProt P43140); experiment: Binding affinity was tested on CEC-pretreated rat hippocampus Alpha-1A adrenergic receptor; type: tissue-based
T5 sequence (P43140 whole entry): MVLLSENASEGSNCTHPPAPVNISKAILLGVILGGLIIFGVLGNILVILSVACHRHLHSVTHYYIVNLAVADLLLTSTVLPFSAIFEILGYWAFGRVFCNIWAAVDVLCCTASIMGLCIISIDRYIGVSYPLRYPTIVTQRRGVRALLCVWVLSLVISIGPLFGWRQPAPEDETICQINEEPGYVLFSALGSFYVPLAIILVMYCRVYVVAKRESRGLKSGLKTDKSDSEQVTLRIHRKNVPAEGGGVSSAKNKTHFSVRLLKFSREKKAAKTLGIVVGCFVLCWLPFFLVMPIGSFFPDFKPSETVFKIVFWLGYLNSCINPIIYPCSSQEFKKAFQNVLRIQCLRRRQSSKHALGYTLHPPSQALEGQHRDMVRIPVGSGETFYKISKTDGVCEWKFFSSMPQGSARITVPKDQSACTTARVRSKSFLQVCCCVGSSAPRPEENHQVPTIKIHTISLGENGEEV

[10] = molecular target: T6, Alpha-1B adrenergic receptor (Rattus norvegicus, UniProt P15823); experiment: Binding affinity was tested on CEC-pretreated rat liver Alpha-1B adrenergic receptor
T6 sequence (P15823 whole entry): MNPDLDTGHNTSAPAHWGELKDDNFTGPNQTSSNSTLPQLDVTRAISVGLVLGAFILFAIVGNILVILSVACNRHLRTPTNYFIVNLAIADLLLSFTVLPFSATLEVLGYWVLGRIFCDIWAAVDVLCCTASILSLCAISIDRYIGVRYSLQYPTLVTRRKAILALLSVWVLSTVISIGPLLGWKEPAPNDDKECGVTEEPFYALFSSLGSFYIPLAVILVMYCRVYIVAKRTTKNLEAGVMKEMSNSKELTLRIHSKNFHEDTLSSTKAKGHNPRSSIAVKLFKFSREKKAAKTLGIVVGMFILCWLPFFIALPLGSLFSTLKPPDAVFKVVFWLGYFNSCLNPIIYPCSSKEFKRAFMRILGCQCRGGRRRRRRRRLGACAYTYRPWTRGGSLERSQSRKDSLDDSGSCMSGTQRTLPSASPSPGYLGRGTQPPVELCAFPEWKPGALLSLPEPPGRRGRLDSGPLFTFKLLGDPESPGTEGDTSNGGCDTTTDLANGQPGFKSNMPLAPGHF

[11] = Apparent binding affinity on human 5-alpha reductase isozyme
[12] = molecular target: T1, Steroid 5-alpha-reductase; experiment: Apparent binding affinity on rat 5-alpha reductase isozyme; type: protein assay

Structure (SMILES): NC(=O)c1ccnc(NCCCN2CCN(c3ccccc3C3CC3)CC2)n1
- Ratio [1]: 4

- IC50 [2]: 35 nM
- IC50 [3]: 70 nM
Structure (SMILES): CC1=C(C(=O)O)CC[C@@]2(C)C1=CCC1C2CC[C@@]2(C)C1CC[C@@H]2C(=O)N(C(C)C)C(C)C (stereo partly specified)

Structure (SMILES): COc1cc2nc(N3CCN(C(=O)c4ccco4)CC3)nc(N)c2cc1OC [PRAZOSIN]
- ED50 (Canis familiaris [4]): 0.012 mg/kg
- ED50 (Canis familiaris [5]): 0.011 mg/kg

- IC50 [6]: 381 nM
Structure (SMILES): CC(C)NC(=O)N(C(=O)[C@H]1CCC2C3CCC4NC(=O)CC[C@]4(C)C3CC[C@@]21C)C(C)C (stereo partly specified)

Structure (SMILES): CCOc1ccccc1OCCN[C@H](C)Cc1ccc(OC)c(S(N)(=O)=O)c1 (stereo in doubt; form 1) [TAMSULOSIN]
- ED50 (Canis familiaris [4]): 0.002 mg/kg
- ED50 (Canis familiaris [5]): 0.001 mg/kg
- Ki [7]: 0.158 nM
- Ki [8]: 1.26 nM

- IC50 [6]: 212 nM
Structure (SMILES): CN1C(=O)CC[C@]2(C)C3CC[C@@]4(C)C(CC[C@@H]4C(=O)N(C(=O)NC(C)(C)C)C(C)(C)C)C3CCC12 (stereo partly specified)

- IC50 [2]: 12 nM
- IC50 [3]: 300 nM
Structure (SMILES): CC(C)N(C(=O)[C@H]1CCC2C3C=CC4=CC(C(=O)O)=CC[C@]4(C)C3CC[C@@]21C)C(C)C (stereo partly specified)

- Ki [7]: 3.98 nM
Structure (SMILES): COc1cc2nc(N3CCN(C(=O)C4CCCO4)CC3)nc(N)c2cc1OC (stereo unspecified) [TERAZOSIN]
- ED50 (Canis familiaris [4]): 0.101 mg/kg
- ED50 (Canis familiaris [5]): 0.085 mg/kg

- IC50 [9]: 1 nM
- IC50 [10]: 108 nM
Structure (SMILES): Cc1c(-c2ccccc2)oc2c(C(=O)NCCCN3CCN(c4ccccc4OC(C)C)CC3)cccc2c1=O

- IC50 [9]: 1 nM
- IC50 [10]: 29 nM
Structure (SMILES): Cc1ccc(Cl)cc1N1CCN(CCCNC(=O)c2cccc3c(=O)c(C)c(-c4ccccc4)oc23)CC1

- Ki [11]: 4200 nM
- Ki [12]: 5300 nM
Structure (SMILES): CC(C)N(C(=O)[C@H]1CCC2C3CC=C4C=C(CO)CC[C@]4(C)C3CC[C@@]21C)C(C)C (stereo partly specified)

- Ki [11]: 25 nM
- Ki [12]: 200 nM
Structure (SMILES): CC(C)N(C(=O)[C@H]1CCC2C3CC=C4C=C(P(=O)(O)O)CC[C@]4(C)C3CC[C@@]21C)C(C)C (stereo partly specified)

- IC50 [2]: 170 nM
- IC50 [3]: 200 nM
Structure (SMILES): CC1=C2C=C(C(=O)O)CC[C@]2(C)C2CC[C@@]3(C)C(CC[C@@H]3C(=O)c3cccc4ccccc34)C2C1 (stereo partly specified)

From ChEMBL document CHEMBL1129998, “Pharmacological options in the treatment of benign prostatic hyperplasia” (J Med Chem, 1997)
